Measured values as given in publication PMC9482650, “Quantitative fragmentomics allow affinity mapping of interactomes” (Nature Communications, 2022).
Ends that are not written are not given here.

What was measured:
Assay type in all cases: binding
[1] = target: LNX1_2 PDZ (Homo sapiens, UniProt Q8TBB1); test: Holdup assay; settings: composite holdup affinity; 0.00=below quantification threshold; read-out: COMP pKd (converted)
[2] = target: SHANK1 PDZ (Homo sapiens, UniProt Q9Y566); test: Holdup assay; settings: composite holdup affinity; 0.00=below quantification threshold; read-out: COMP pKd (converted)
[3] = target: PDZD2_4 PDZ (Homo sapiens, UniProt O15018); test: Holdup assay; settings: sheet PPI_convert; read-out: affinity to PDZ PDZD2_4 (converted)
[4] = target: MAST1 PDZ (Homo sapiens, UniProt Q9Y2H9); test: Holdup assay; settings: composite holdup affinity; 0.00=below quantification threshold; read-out: COMP pKd (converted)
[5] = target: DFNB31_1 PDZ (Homo sapiens, UniProt Q9P202); test: Holdup assay; settings: composite holdup affinity; 0.00=below quantification threshold; read-out: COMP pKd (converted)
[6] = target: MAGI1_6 PDZ (Homo sapiens, UniProt Q96QZ7); test: Holdup assay; settings: sheet PPI_convert; read-out: affinity to PDZ MAGI1_6 (converted)
[7] = target: LIN7C PDZ (Homo sapiens, UniProt Q9NUP9); test: Holdup assay; settings: composite holdup affinity; 0.00=below quantification threshold; read-out: COMP pKd (converted)
[8] = target: FRMPD3 PDZ (Homo sapiens, UniProt Q5JV73); test: Holdup assay; settings: composite holdup affinity; 0.00=below quantification threshold; read-out: COMP pKd (converted)
[9] = target: T1, MAST2 PDZ (Homo sapiens, UniProt Q6P0Q8); test: biochemical; settings: composite holdup affinity; 0.00=below quantification threshold; read-out: COMP pKd (converted)
T1 sequence (Q6P0Q8 1104-1192 limits assumed): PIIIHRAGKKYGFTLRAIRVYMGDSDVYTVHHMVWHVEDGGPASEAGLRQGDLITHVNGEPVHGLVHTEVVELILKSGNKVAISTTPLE

[10] = target: APBA1_2 PDZ (Homo sapiens, UniProt Q02410); test: Holdup assay; settings: composite holdup affinity; 0.00=below quantification threshold; read-out: COMP pKd (converted)
[11] = target: FRMPD2_3 PDZ (Homo sapiens, UniProt Q68DX3); test: Holdup assay; settings: composite holdup affinity; 0.00=below quantification threshold; read-out: COMP pKd (converted)
[12] = target: AHNAK1 PDZ (Homo sapiens, UniProt Q09666); test: Holdup assay; settings: composite holdup affinity; 0.00=below quantification threshold; read-out: COMP pKd (converted)
[13] = target: NOS1 PDZ (Homo sapiens, UniProt P29475); test: Holdup assay; settings: composite holdup affinity; 0.00=below quantification threshold; read-out: COMP pKd (converted)
[14] = target: GRIP1_2 PDZ (Homo sapiens, UniProt Q9Y3R0); test: Holdup assay; settings: composite holdup affinity; 0.00=below quantification threshold; read-out: COMP pKd (converted)
[15] = target: LIN7A PDZ (Homo sapiens, UniProt O14910); test: Holdup assay; settings: composite holdup affinity; 0.00=below quantification threshold; read-out: COMP pKd (converted)
[16] = target: GRIP2_5 PDZ (Homo sapiens, UniProt Q9C0E4); test: Holdup assay; settings: composite holdup affinity; 0.00=below quantification threshold; read-out: COMP pKd (converted)
[17] = target: GRIP2_6 PDZ (Homo sapiens, UniProt Q9C0E4); test: Holdup assay; settings: composite holdup affinity; 0.00=below quantification threshold; read-out: COMP pKd (converted)
[18] = target: GRASP PDZ (Homo sapiens, UniProt Q7Z6J2); test: Holdup assay; settings: composite holdup affinity; 0.00=below quantification threshold; read-out: COMP pKd (converted)
[19] = target: FRMPD2_1 PDZ (Homo sapiens, UniProt Q68DX3); test: Holdup assay; settings: composite holdup affinity; 0.00=below quantification threshold; read-out: COMP pKd (converted)
[20] = target: SCRIB_3 PDZ (Homo sapiens, UniProt Q14160); test: Holdup assay; settings: composite holdup affinity; 0.00=below quantification threshold; read-out: COMP pKd (converted)
[21] = target: GRIP2_7 PDZ (Homo sapiens, UniProt Q9C0E4); test: Holdup assay; settings: composite holdup affinity; 0.00=below quantification threshold; read-out: COMP pKd (converted)
[22] = target: HTRA1 PDZ (Homo sapiens, UniProt Q92743); test: Holdup assay; settings: composite holdup affinity; 0.00=below quantification threshold; read-out: COMP pKd (converted)
[23] = target: MAGI1_2 PDZ (Homo sapiens, UniProt Q96QZ7); test: biochemical; settings: composite holdup affinity; 0.00=below quantification threshold; read-out: COMP pKd (converted)
[24] = target: DLG3_3 PDZ (Homo sapiens, UniProt Q92796); test: Holdup assay; settings: composite holdup affinity; 0.00=below quantification threshold; read-out: COMP pKd (converted)
[25] = target: MAGI1_3 PDZ (Homo sapiens, UniProt Q96QZ7); test: Holdup assay; settings: sheet PPI_convert; read-out: affinity to PDZ MAGI1_3 (converted)
[26] = target: PDZD2_2 PDZ (Homo sapiens, UniProt O15018); test: Holdup assay; settings: composite holdup affinity; 0.00=below quantification threshold; read-out: COMP pKd (converted)
[27] = target: MAGI2_4 PDZ (Homo sapiens, UniProt Q86UL8); test: Holdup assay; settings: composite holdup affinity; 0.00=below quantification threshold; read-out: COMP pKd (converted)
[28] = target: SNX27 PDZ (Homo sapiens, UniProt Q96L92); test: Holdup assay; settings: composite holdup affinity; 0.00=below quantification threshold; read-out: COMP pKd (converted)
[29] = target: PDZRN4_1 PDZ (Homo sapiens, UniProt Q6ZMN7); test: Holdup assay; settings: composite holdup affinity; 0.00=below quantification threshold; read-out: COMP pKd (converted)
[30] = target: Inadl_8 PDZ (Homo sapiens, UniProt Q8NI35); test: Holdup assay; settings: composite holdup affinity; 0.00=below quantification threshold; read-out: COMP pKd (converted)
[31] = target: PTPN3 PDZ (Homo sapiens, UniProt P26045); test: Holdup assay; settings: composite holdup affinity; 0.00=below quantification threshold; read-out: COMP pKd (converted)
[32] = target: PDZD2_3 PDZ (Homo sapiens, UniProt O15018); test: Holdup assay; settings: sheet PPI_convert; read-out: affinity to PDZ PDZD2_3 (converted)
[33] = target: PDZRN3_2 PDZ (Homo sapiens, UniProt Q9UPQ7); test: Holdup assay; settings: sheet PPI_convert; read-out: affinity to PDZ PDZRN3_2 (converted)
[34] = target: RADIL PDZ (Homo sapiens, UniProt Q96JH8); test: Holdup assay; settings: composite holdup affinity; 0.00=below quantification threshold; read-out: COMP pKd (converted)
[35] = target: CNKSR1 PDZ (Homo sapiens, UniProt Q969H4); test: Holdup assay; settings: sheet PPI_convert; read-out: affinity to PDZ CNKSR1 (converted)
Excerpt: Supplement 41467_2022_33018_MOESM4_ESM.xlsx, sheet "PPI_convert" | column: CNKSR1

[36] = target: PARD3B_2 PDZ (Homo sapiens, UniProt Q8TEW8); test: Holdup assay; settings: sheet PPI_convert; read-out: affinity to PDZ PARD3B_2 (converted)
PARD3B_2 PDZ, sequence (Q8TEW8 383-468 limits assumed): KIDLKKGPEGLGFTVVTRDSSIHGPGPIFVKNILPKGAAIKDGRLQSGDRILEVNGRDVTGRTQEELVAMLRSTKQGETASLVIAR

PDZRN4_1 PDZ, sequence (Q6ZMN7 224-314 limits assumed): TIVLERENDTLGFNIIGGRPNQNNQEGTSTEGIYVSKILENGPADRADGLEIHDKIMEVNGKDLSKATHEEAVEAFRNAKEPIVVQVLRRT
MAST1 PDZ, sequence (Q9Y2H9 967-1055 limits assumed): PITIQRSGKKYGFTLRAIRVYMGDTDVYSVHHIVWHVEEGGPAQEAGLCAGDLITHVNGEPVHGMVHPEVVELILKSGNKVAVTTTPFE
GRIP1_2 PDZ, sequence (Q9Y3R0 150-238 limits assumed): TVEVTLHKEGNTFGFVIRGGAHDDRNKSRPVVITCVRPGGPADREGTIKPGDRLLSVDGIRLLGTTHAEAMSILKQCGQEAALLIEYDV
APBA1_2 PDZ, sequence (Q02410 747-822 limits assumed): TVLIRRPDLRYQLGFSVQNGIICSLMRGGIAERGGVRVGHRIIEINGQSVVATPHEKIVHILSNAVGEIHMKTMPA
DFNB31_1 PDZ, sequence (Q9P202 140-223 limits assumed): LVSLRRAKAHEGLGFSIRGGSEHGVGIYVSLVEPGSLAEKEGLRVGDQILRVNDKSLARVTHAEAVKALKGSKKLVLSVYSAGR
LIN7C PDZ, sequence (Q9NUP9 93-175 limits assumed): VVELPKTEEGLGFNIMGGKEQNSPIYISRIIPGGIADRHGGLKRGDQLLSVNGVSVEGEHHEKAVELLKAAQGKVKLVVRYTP
PTPN3 PDZ, sequence (P26045 510-582 limits assumed): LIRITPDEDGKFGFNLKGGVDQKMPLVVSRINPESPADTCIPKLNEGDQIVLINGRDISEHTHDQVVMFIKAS
DLG3_3 PDZ, sequence (Q92796 379-465 limits assumed): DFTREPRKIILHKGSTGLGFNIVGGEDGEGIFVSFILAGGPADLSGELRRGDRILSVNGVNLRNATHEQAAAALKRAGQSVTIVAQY
SCRIB_3 PDZ, sequence (Q14160 1004-1093 limits assumed): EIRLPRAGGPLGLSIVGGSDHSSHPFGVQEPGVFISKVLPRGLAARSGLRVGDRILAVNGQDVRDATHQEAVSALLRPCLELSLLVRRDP
PDZD2_2 PDZ, sequence (O15018 334-419 limits assumed): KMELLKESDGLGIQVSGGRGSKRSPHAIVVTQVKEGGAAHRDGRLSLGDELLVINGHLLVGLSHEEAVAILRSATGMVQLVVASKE
MAGI1_2 PDZ, sequence (Q96QZ7 472-554 limits assumed): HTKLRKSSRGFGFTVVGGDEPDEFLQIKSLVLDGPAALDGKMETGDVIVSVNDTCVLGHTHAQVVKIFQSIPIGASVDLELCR
MAGI2_4 PDZ, sequence (Q86UL8 778-860 limits assumed): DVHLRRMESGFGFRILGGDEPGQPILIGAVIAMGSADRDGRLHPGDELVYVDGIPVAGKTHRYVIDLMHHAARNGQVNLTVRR
NOS1 PDZ, sequence (P29475 17-99 limits assumed): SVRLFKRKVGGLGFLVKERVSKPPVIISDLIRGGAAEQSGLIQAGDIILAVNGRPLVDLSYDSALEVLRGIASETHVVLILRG
GRIP2_7 PDZ, sequence (Q9C0E4 941-1023 limits assumed): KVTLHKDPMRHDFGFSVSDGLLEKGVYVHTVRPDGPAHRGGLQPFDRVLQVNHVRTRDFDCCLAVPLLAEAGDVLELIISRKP
PDZD2_4 PDZ, sequence (O15018 728-813 limits assumed): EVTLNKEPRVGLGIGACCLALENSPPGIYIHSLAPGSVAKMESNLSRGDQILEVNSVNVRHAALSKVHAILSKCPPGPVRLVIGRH
SHANK1 PDZ, sequence (Q9Y566 663-757 limits assumed): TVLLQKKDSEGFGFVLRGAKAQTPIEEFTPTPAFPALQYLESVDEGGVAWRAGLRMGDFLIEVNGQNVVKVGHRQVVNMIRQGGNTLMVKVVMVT
MAGI1_6 PDZ, sequence (Q96QZ7 1124-1206 limits assumed): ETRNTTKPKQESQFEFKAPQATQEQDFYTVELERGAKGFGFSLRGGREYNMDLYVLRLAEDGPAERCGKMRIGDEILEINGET
FRMPD3 PDZ, sequence (Q5JV73 21-98 limits assumed): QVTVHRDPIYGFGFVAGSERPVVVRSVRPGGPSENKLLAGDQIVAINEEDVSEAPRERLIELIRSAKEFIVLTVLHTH
GRIP2_6 PDZ, sequence (Q9C0E4 656-738 limits assumed): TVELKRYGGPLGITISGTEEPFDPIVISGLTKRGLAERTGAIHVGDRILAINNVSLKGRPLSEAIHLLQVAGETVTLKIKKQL
MAGI1_3 PDZ, sequence (Q96QZ7 643-721 limits assumed): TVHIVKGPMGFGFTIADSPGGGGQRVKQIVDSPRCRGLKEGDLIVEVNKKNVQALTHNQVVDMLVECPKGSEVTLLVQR
CNKSR1 PDZ, sequence (Q969H4 196-285 limits assumed): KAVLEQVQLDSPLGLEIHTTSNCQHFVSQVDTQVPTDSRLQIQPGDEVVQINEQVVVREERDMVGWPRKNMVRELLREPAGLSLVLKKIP
AHNAK1 PDZ, sequence (Q09666 9-90 limits assumed): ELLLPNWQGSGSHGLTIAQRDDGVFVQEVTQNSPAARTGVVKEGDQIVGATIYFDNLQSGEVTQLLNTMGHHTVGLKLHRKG
RADIL PDZ, sequence (Q96JH8 976-1061 limits assumed): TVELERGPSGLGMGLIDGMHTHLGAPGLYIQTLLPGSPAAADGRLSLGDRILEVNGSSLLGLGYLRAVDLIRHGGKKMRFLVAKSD
FRMPD2_1 PDZ, sequence (Q68DX3 775-861 limits assumed): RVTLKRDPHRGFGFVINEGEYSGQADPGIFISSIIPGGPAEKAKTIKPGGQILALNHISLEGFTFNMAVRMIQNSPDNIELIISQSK
LIN7A PDZ, sequence (O14910 108-190 limits assumed): as the sequence (Q9NUP9 93-175 limits assumed) above, with E8D, I15V, I35V, D37E, Q72K, G73D, K74S counted along it
GRIP2_5 PDZ, sequence (Q9C0E4 557-641 limits assumed): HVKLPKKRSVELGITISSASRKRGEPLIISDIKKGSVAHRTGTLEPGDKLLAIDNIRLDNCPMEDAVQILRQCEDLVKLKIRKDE
HTRA1 PDZ, sequence (Q92743 365-467 limits assumed): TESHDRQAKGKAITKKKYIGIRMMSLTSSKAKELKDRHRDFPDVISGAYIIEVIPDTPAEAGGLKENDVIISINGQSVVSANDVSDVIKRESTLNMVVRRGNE
FRMPD2_3 PDZ, sequence (Q68DX3 1079-1167 limits assumed): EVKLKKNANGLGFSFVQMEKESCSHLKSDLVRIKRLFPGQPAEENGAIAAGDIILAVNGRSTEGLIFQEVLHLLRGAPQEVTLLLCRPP
PDZRN3_2 PDZ, sequence (Q9UPQ7 419-503 limits assumed): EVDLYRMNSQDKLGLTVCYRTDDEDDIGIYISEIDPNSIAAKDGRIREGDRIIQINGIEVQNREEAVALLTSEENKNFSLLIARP
LNX1_2 PDZ, sequence (Q8TBB1 381-464 limits assumed): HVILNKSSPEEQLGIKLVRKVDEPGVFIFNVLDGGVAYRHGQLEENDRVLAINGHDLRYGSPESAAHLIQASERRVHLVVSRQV
GRASP PDZ, sequence (Q7Z6J2 101-190 limits assumed): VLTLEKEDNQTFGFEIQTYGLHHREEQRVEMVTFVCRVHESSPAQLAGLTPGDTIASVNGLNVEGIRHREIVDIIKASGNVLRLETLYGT
PDZD2_3 PDZ, sequence (O15018 586-672 limits assumed): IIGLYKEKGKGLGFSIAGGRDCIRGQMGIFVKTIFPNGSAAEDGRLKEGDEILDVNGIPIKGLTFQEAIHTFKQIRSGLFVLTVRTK
Inadl_8 PDZ, sequence (Q8NI35 1437-1520 limits assumed): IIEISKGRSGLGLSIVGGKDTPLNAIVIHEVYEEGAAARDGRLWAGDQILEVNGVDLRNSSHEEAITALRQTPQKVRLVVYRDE

Sequence	Kd [3]	Kd [4]	Kd [5]	Kd [7]	Kd [9]	Kd [10]	Kd [13]	Kd [14]	Kd [20]	Kd [21]	Kd [23]	Kd [24]	Kd [26]	Kd [27]	Kd [28]	Kd [29]	Kd [31]	also measured
RHTTSTETAV [HPV30-E6]	16.6 µM	21.9 µM	53.7 µM	64.6 µM	3.02 µM	58.9 µM	23.4 µM	166 µM	9.55 µM	145 µM	40.7 µM	21.9 µM	38 µM	85.1 µM	2.29 µM	29.5 µM	7.41 µM	Kd [1]: 214 µM; Kd [2]: 186 µM; Kd [6]: 18.6 µM; Kd [8]: 174 µM; Kd [11]: 135 µM; Kd [12]: 191 µM; Kd [15]: 158 µM; Kd [16]: 178 µM; Kd [17]: 170 µM; Kd [18]: 110 µM; Kd [19]: 72.4 µM; Kd [22]: 186 µM; Kd [25]: 19.1 µM; Kd [30]: 115 µM
RTRQRNETQV [HPV51-E6]	45.7 µM	58.9 µM	339 µM	145 µM	5.37 µM	275 µM	123 µM	347 µM	67.6 µM	331 µM	1.17 µM	12.3 µM	263 µM	39.8 µM	14.1 µM	69.2 µM	41.7 µM	Kd [32]: 60.3 µM; Kd [33]: 69.2 µM; Kd [34]: 151 µM; Kd [35]: 36.3 µM; Kd [36]: 40.7 µM
